The values that follow are results of earlier work, collected in patent US8541630B2, “Process for producing dimethyl ether from methanol” (China Petroleum & Chemical Corporation, priority 2008, dated 2013).

Structures are written as SMILES. Read-outs that look alike come from different tables or passages of the source.

Take `COC` [DME, Dimethyl ether]: the Solubility was 11.83 wt % (solvent Acetone (25° C.)); 15.29 wt % (solvent Benzene (25° C.)); 16.33 wt % (solvent CCl4 (25° C.)); 18.56 wt % (solvent Chlorobenzene (106 kPa, 25° C.)); 19 wt % (solvent Gasoline, 0° C.); 7 wt % (solvent Gasoline, 25° C.). Also, the Solubility is 64 wt % (solvent Gasoline, −40° C.); 11.1 wt % (solvent Methyl acetate (93.86 kPa, 25° C.)); 35.3 wt % (solvent Water (24° C.)).
